Tests used:
[1] = target: T1, 5-Lipoxygenase from HWBL-1 20,000 xg Supernatant (Rattus norvegicus, UniProt P12527); test: 5-lipoxygenase inhibition, 20,000 xg supernatant of homogenized HWBL-1 cells, radiolabeled arachidonic acid; format: biochemical; settings: read-out: IC50 (in vitro inhibitory potency against 5-lipoxygenase)
T1 construct: 20,000 xg supernatant from 1.5 million homogenized HWBL-1 cells; endogenous in cells
T1 sequence (P12527 1-673): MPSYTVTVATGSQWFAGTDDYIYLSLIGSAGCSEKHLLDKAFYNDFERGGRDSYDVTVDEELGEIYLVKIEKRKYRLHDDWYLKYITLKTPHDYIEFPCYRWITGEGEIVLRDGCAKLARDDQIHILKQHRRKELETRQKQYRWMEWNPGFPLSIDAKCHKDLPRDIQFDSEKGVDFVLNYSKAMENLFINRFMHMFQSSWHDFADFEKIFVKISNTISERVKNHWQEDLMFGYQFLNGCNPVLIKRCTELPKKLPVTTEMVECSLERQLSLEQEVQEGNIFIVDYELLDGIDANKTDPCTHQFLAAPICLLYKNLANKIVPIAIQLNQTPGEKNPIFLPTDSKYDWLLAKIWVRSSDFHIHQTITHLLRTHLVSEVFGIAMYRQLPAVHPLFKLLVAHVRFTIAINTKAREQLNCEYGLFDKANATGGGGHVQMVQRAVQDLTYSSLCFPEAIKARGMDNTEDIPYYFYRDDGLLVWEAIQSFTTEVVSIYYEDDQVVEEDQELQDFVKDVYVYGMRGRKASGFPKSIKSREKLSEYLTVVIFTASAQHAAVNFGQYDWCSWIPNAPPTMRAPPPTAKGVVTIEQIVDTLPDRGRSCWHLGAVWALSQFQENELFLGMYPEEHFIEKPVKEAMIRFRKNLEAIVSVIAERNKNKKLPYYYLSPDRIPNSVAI
Experimental: Assays to determine 5-lipoxygenase inhibitory activity of representative compounds of the present invention were performed in […] incubations containing the 20,000 xg supernatant from 1.5 million homogenized HWBL-1 cells and various concentrations of the test compound. Reactions were initiated by addition of radiolabeled arachidonic acid and terminated by acidification and ether extraction. Reaction products were separated from nonconverted substrate by thin layer chromatography and measured by liquid scintillation spectroscopy. All incubations are performed in triplicate. Inhibition of 5-lipoxygenase activity was calculated as the ratio of the amount of product formed in the presence and absence of inhibitor. IC50 values (concentration of compound producing 50% enzyme inhibition) were calculated by linear regression analysis of percentage inhibition versus log inhibitor concentration plots. (Dyer, R. D.; Haviv, F.; Hanel, A. M.; Bornemier, D. A.; Carter, G. W. Fed. Proc., Fed. Am. Soc. Exp. Biol. 1984, 43, 1462A).
In Vitro Inhibitory Potencies of Compounds of this Invention
Against 5-Lipoxygenase from HWBL-1 20,000 xg Supernatant

Leukotrienes = test: inhibition of leukotriene biosynthesis in vivo, rat peritoneal anaphylaxis model, oral; settings: oral gavage, 1 h before antigen challenge; for inhibition in vivo at 100 µmol/kg: 100 μmol/kg, read-out: % Inhibition of Leukotrienes, Oral Dose at 100 μmol/kg; for inhibition in vivo at 30 µmol/kg: read-out: % Inhibition of Leukotrienes, Oral Dose at 30 μmol/kg
Experimental: Inhibition of the biosynthesis of leuktrienes in vivo after oral administration of compound was determined using a rat peritoneal anaphylaxis model in a similar manner as that described by Young and coworkers (Young, P. R.; Dyer, R. D.; Carter, G. W. Fed. Proc., Fed. Am. Soc. Exp. Biol. 1985, 44, 1185). In this model rats were injected intraperitoneally (ip) with rabbit antibody to bovine serum albumin (BSA) and three hours later injected ip with BSA to induce an antgen-antibody response. Rats were sacrificed 15 minutes after this challenge and the peritoneal fluids were collected and analyzed for leukotriene levels. Test compounds were administered by gavage one hour prior to the antigen challenge. Percent inhibition values were determined by comparing the treatment group to the mean of the control group.

| Compound | IC50 [1] | inhibition in vivo at 100 µmol/kg (Leukotrienes) | % Inhibition of Leukotrienes, Oral Dose at 50 μmol/kg (Leukotrienes) | inhibition in vivo at 30 µmol/kg (Leukotrienes; 30 μmol/kg) | % Inhibition of Leukotrienes, Oral Dose at 30 μmol/kg (Leukotrienes; 30 μmol/kg) |
| --- | --- | --- | --- | --- | --- |
| NC(=O)N(O)CCNC(=O)c1cccc(Oc2ccc(Cl)cc2)c1 [Example 26, N-Hydroxy-N-[2-((3-(4-chlorophenoxy)benzoyl)amino)ethyl]urea] | 160 nM | 99% |  |  |  |
| NC(=O)N(O)CCNC(=O)c1cccc(Oc2ccccc2)c1 [Example 2] | 230 nM | 84% |  |  |  |
| NC(=O)N(O)CCCNC(=O)c1cccc(Oc2ccccc2)c1 [Example 21] | 70 nM | 95% |  |  |  |
| COc1ccc(Oc2cccc(CN(C)CCN(O)C(N)=O)c2)cc1 [Example 38] | 200 nM | 86% |  |  |  |
| C[C@H](CN(O)C(N)=O)NC(=O)c1cccc(Oc2ccccc2)c1 [Example 32, (R)-N-Hydroxy-N-[2-((3-phenoxybenzoyl)amino)propyl]urea] | 210 nM | 90% |  |  |  |
| NC(=O)N(O)CCNC(=O)c1ccc(Oc2ccccc2)cc1 [Example 52, N-Hydroxy-N-[2-((4-phenoxybenzoyl)amino)ethyl]urea] | 160 nM |  |  | 19% |  |
| N-Hydroxy-N-[((4-chlorobenzo[b]thien-2-oyl)amino)ethyl]urea [Example 64] | 2100 nM |  |  |  | 92% |
| NC(=O)N(O)CCNC(=O)c1cccc(Oc2ccccn2)c1 [Example 55, N-Hydroxy-N-[2-((3-(pyrid-2-yloxy)benzoyl)amino)ethyl]urea] | 1000 nM | 83% |  |  |  |
| CN(CCN(O)C(N)=O)Cc1cccc(Oc2cc(Cl)cc(Cl)c2)c1 [Example 40, N-Hydroxy-N-[2-(N-methyl-((3-(3,5-dichlorophenoxy)phenyl)methyl)amino)ethyl]urea] | 150 nM | 76% |  |  |  |
| NC(=O)N(O)CCNC(=O)c1ccccc1Oc1ccccc1 [Example 51, N-Hydroxy-N-[2-((2-phenoxybenzoyl)amino)ethyl]urea] | 240 nM |  |  | 47% |  |
| CCCCOc1cccc(C(=O)NCCN(O)C(N)=O)c1 [Example 19] | 260 nM | 63% |  |  |  |
| CN(CCN(O)C(N)=O)Cc1cccc(Oc2ccc(Cl)cc2)c1 [Example 37, N-Hydroxy-N-[2-(N-methyl-((3-(4-chlorophenoxy)phenyl)methyl)amino)ethyl]urea] | 100 nM | 80% |  |  |  |
| NC(=O)N(O)CCNC(=O)COc1ccccc1Oc1ccccc1 [Example 73, N-Hydroxy-N-[2-((2-phenoxyphenoxyacetyl)amino)ethyl]urea] |  |  |  | 53% |  |
| CNC(=O)N(O)CCCNC(=O)c1cccc(Oc2ccccc2)c1 [Example 23, N-Hydroxy-N'-methyl-N-[3-((3-phenoxybenzoyl)amino)propyl]urea] |  |  |  | 57% |  |
| NC(=O)N(O)CCNC(=O)c1cccc(OCc2ccccc2)c1 [Example 35, N-Hydroxy-N-[2-((3-phenylmethyloxybenzoyl)amino)ethyl]urea] | 220 nM | 15% |  |  |  |
| NC(=O)N(O)CCNC(=O)c1ccc(Oc2ccccc2)o1 [Example 36, N-Hydroxy-N-[2-((5-phenoxyfuran-2-oyl)amino)ethyl]urea] | 130 nM |  |  | 78% |  |
| NC(=O)N(O)CCNC(=O)c1cccc(Oc2ccc(Br)cc2)c1 [Example 53, N-Hydroxy-N-[2-(3-((4-bromophenoxy)benzoyl)amino)ethyl]urea] | 440 nM |  |  | 33% |  |
| NC(=O)N(O)CCNC(=O)c1cccc(Oc2ccc(F)cc2)c1 [Example 54, N-Hydroxy-N-[2-(3-((4-fluorophenoxy)benzoyl)amino)ethyl]urea] | 150 nM |  |  | 11% |  |
| NC(=O)N(O)CCNC(=O)c1cccc(Oc2cccc(C(F)(F)F)c2)c1 [Example 25, N-Hydroxy-N-[2-((3-(3-trifluoromethylphenoxy)benzoyl)amino)ethyl]urea] | 430 nM |  |  |  |  |

Second part, led by results:

| IC50 [1] | Compound | inhibition in vivo at 100 µmol/kg (Leukotrienes) | % Inhibition of Leukotrienes, Oral Dose at 50 μmol/kg (Leukotrienes) | inhibition in vivo at 30 µmol/kg (Leukotrienes; 30 μmol/kg) | % Inhibition of Leukotrienes, Oral Dose at 30 μmol/kg (Leukotrienes; 30 μmol/kg) |
| --- | --- | --- | --- | --- | --- |
| 110 nM | NC(=O)N(O)CCNC(=O)c1ccc(Oc2ccc(Cl)cc2)o1 [Example 58, N-Hydroxy-N-[2-((5-(4-chlorophenoxy)furan-2-oyl)amino)ethyl]urea] |  | 81% |  |  |
| 370 nM | CC(Oc1ccccc1C(=O)NCCN(O)C(N)=O)c1ccccc1 (centres unmarked) [Example 87, N-Hydroxy-N-[2-((2-(1-phenylethyloxy)benzoyl)amino)ethyl]urea] | 60% |  |  |  |
| 160 nM | NC(=O)N(O)CCNC(=O)c1ccc(Oc2ccc(F)cc2)o1 [Example 61] |  | 60% |  |  |
| 280 nM | CC(CCNC(=O)c1ccc(Oc2ccc(F)cc2)o1)N(O)C(N)=O (centres unmarked) [Example 88, N-Hydroxy-N-[4-((5-(4-fluorophenoxy)furan-2-oyl)amino)but-2-yl]urea] |  |  | 84% |  |
| 1000 nM | NC(=O)N(O)CCNC(=O)c1cc2ccccc2o1 [Example 63, N-Hydroxy-N-[((benzo[b]furan-2-oyl)amino)ethyl]urea] |  |  | 52% |  |
| 220 nM | NC(=O)N(O)CCNC(=O)Cc1cccc(Oc2ccccc2)c1 [Example 56, N-Hydroxy-N-[2-((3-phenoxyphenylacetyl)amino)ethyl]urea] | 85% |  |  |  |
| 280 nM | C[C@@H](CN(O)C(N)=O)NC(=O)c1ccc(Oc2ccc(F)cc2)o1 [Example 60] | 84% |  |  |  |
| 290 nM | CC(CNC(=O)OC(C)(C)C)N(O)C(N)=O (centres unmarked) [Example 85, (d.l)-N-Hydroxy-N-[3-((tert-butyoxycarbonyl)amino)prop-2-yl]urea] |  |  |  |  |
